According to patent US10131648B2, “Substituted benzothiophenyl derivatives as GPR40 agonists for the treatment of type II diabetes” (Janssen Pharmaceutica NV, priority 2014, dated 2018):
pEC50: −log10 of the molar value.

Target: human GPR40 (Homo sapiens (Human), UniProt O14842)
Test: GPR40 Calcium Flux Assay
Assay type: cell-based
Conditions: transfected HEK293 cells stably expressing human GPR40; Ca2+ mobilization; mean data; read-out: hGPR40 Ca^2+ Assay EC50
Procedure: Compounds were tested in a calcium flux assay using transfected HEK293 cells stably expressing either human GPR40 or rat GPR40. Human GPR40 expressing cells were cultured in DMEM-High Glucose media supplemented with 10% fetal bovine serum, 1×L-Glutamine, 1×Penicillin/Streptomycin and 500 μg/mL G418. Rat GPR40 expressing cells were cultured in DMEM-High Glucose media supplemented with 10% fetal bovine serum and 1 μg/mL puromycin. Cells were plated into poly-D-lysine coated 384-well plates and cultured overnight in a 37° C. humidified tissue culture incubator under 5% CO2/[…] atmosphere. On the day of the experiment, the culture media was replaced with assay buffer (HBSS, 20 mM HEPES, 0.1% BSA) and the cells incubated at 37° C. for 1 h. Calcium-sensitive fluorescent dye (Fluo 8 No-Wash Calcium Dye, ABD Bioquest) was then added and the cells incubated for another 30 min at 37° C. followed by 15 min at room temperature while protected from the light. The cell plate and a plate of diluted compounds of Formula (I) were loaded into a fluorescent plate reader that added compounds onto the cells while measuring the fluorescence intensity of each well. The plate reader recorded fluorescence intensity at 1 second intervals for 8 min and provided the data for analysis in an Excel format. EC50 values were calculated using Prism (GraphPad) software.

Sequence of human GPR40 (O14842 whole entry): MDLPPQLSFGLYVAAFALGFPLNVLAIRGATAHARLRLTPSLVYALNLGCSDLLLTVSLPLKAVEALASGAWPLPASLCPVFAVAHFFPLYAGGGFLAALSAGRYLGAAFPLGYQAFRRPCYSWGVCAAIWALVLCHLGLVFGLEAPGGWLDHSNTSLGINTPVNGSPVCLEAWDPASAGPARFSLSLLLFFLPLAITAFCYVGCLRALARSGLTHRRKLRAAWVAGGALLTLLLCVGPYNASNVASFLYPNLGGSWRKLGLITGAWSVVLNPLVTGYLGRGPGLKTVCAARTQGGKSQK

SMILES | pEC50
Cc1cc(OC2CCS(=O)(=O)CC2)ccc1-c1csc2ccc(COc3ccc(C4(CC(=O)O)CC(=O)C4)cc3)cc12 [Cpd 33, 2-(1-(4-((3-(4-((1,1-Dioxidotetrahydro-2H-thiopyran-4-yl)oxy)-2-methylphenyl)benzo[b]thiophen-5-yl)methoxy)phenyl)-3-oxocyclobutyl)acetic acid] | 7.82
Cc1cc(OC2CCOCC2)ccc1-c1csc2ccc(COc3ccc(C4(CC(=O)O)CC(=O)C4)cc3)cc12 [Cpd 34, 2-(1-(4-((3-(2-Methyl-4-((tetrahydro-2H-pyran-4-yl)oxy)phenyl)benzo[b]thiophen-5-yl)methoxy)phenyl)-3-oxocyclobutyl)acetic acid] | 7.60
CCOCCOc1ccc(-c2csc3ccc(COc4ccc([C@]5(CC(=O)O)C[C@@H](O)C5)cc4)cc23)c(C)c1 [Cpd 35] | 7.59
Cc1cc(OC2CCS(=O)(=O)CC2)ccc1-c1csc2ccc(COc3ccc([C@]4(CC(=O)O)C[C@@H](O)C4)cc3)cc12 [Cpd 36, 2-((1r,3r)-1-(4-((3-(4-((1,1-Dioxidotetrahydro-2H-thiopyran-4-yl)oxy)-2-methylphenyl)benzo[b]thiophen-5-yl)methoxy)phenyl)-3-hydroxycyclobutyl)acetic acid] | 7.37
Cc1cc(OC2CCOCC2)ccc1-c1csc2ccc(COc3ccc([C@]4(CC(=O)O)C[C@@H](O)C4)cc3)cc12 [Cpd 37, 2-((1r,3r)-3-Hydroxy-1-(4-((3-(2-methyl-4-((tetrahydro-2H-pyran-4-yl)oxy)phenyl)benzo[b]thiophen-5-yl)methoxy)phenyl)cyclobutyl)acetic acid] | 7.77
Cc1ncccc1-c1csc2ccc(COc3ccc(C4(CC(=O)O)CC(=O)C4)cc3)cc12 [Cpd 38, 2-(1-(4-((3-(2-Methylpyridin-3-yl)benzo[b]thiophen-5-yl)methoxy)phenyl)-3-oxocyclobutyl)acetic acid] | 7.72
Cc1ncccc1-c1csc2ccc(COc3ccc([C@]4(CC(=O)O)C[C@@H](O)C4)cc3)cc12 [Cpd 39] | 7.34
Cc1cc(N2CC3(CCS3(=O)=O)C2)ccc1-c1csc2ccc(COc3ccc(C4(CC(=O)O)CC(=O)C4)cc3)cc12 [Cpd 40, 2-(1-(4-((3-(4-(1,1-Dioxido-1-thia-6-azaspiro[3.3]heptan-6-yl)-2-methylphenyl)benzo[b]thiophen-5-yl)methoxy)phenyl)-3-oxocyclobutyl)acetic acid] | 7.82
CC#C[C@@H](CC(=O)O)c1ccc(OCc2ccc3scc(-c4cc(S(C)(=O)=O)ccc4C)c3c2)cc1 [Cpd 41, (3S)-3-(4-((3-(2-Methyl-5-(methylsulfonyl)phenyl)benzo[b]thiophen-5-yl)methoxy)phenyl)hex-4-ynoic acid] | 7.68
CC#C[C@@H](CC(=O)O)c1ccc(OCc2ccc3scc(-c4ccc(S(C)(=O)=O)cc4C)c3c2)cc1 [Cpd 42, (3S)-3-(4-((3-(2-Methyl-4-(methylsulfonyl)phenyl)benzo[b]thiophen-5-yl)methoxy)phenyl)hex-4-ynoic acid] | 7.92
CC#C[C@@H](CC(=O)O)c1ccc(OCc2ccc3scc(-c4cc(NS(C)(=O)=O)ccc4C)c3c2)cc1 [Cpd 43, (3S)-3-(4-((3-(2-Methyl-5-(methylsulfonamido)phenyl)benzo[b]thiophen-5-yl)methoxy)phenyl)hex-4-ynoic acid] | 7.51
CC#C[C@@H](CC(=O)O)c1ccc(OCc2ccc3scc(-c4c(C)cccc4NS(C)(=O)=O)c3c2)cc1 [Cpd 44, (3S)-3-(4-((3-(2-Methyl-6-(methylsulfonamido)phenyl)benzo[b]thiophen-5-yl)methoxy)phenyl)hex-4-ynoic acid] | 7.66
CC#CC(CC(=O)O)c1ccc(OCc2ccc3scc(-c4ccccc4C)c3c2)nc1 (stereo not shown) [Cpd 45, 3-(6-((3-(2-Methylphenyl)benzo[b]thiophen-5-yl)methoxy)pyridin-3-yl)hex-4-ynoic acid] | 7.89
CC#CC(CC(=O)O)c1ccc(OCc2ccc3scc(-c4ccc(OC5CCOCC5)cc4C)c3c2)nc1 (stereo not shown) [Cpd 46, 3-(6-((3-(2-Methyl-4-((tetrahydro-2H-pyran-4-yl)oxy)phenyl)benzo[b]thiophen-5-yl)methoxy)pyridin-3-yl)hex-4-ynoic acid] | 7.74
CC#CC(CC(=O)O)c1ccc(OCc2ccc3scc(-c4ccc(OCCOC)cc4C)c3c2)nc1 (stereo not shown) [Cpd 47, 3-(6-((3-(4-(2-Methoxyethoxy)-2-methylphenyl)benzo[b]thiophen-5-yl)methoxy)pyridin-3-yl)hex-4-ynoic acid] | 7.70
CC#C[C@@H](CC(=O)O)c1ccc(OCc2ccc3scc(-c4ncc(OCCOC)cc4C)c3c2)cc1 [Cpd 48, (3S)-3-(4-((3-(5-(2-Methoxyethoxy)-3-methylpyridin-2-yl)benzo[b]thiophen-5-yl)methoxy)phenyl)hex-4-ynoic acid] | 8.00

SMILES | pEC50
CC#C[C@@H](CC(=O)O)c1ccc(OCc2ccc3scc(-c4cc(OCCOC)cnc4C)c3c2)cc1 [Cpd 49, (3S)-3-(4-((3-(5-(2-Methoxyethoxy)-2-methylpyridin-3-yl)benzo[b]thiophen-5-yl)methoxy)phenyl)hex-4-ynoic acid] | 8.05
CC#C[C@@H](CC(=O)O)c1ccc(OCc2ccc3scc(-c4ccc(OCCOC)nc4C)c3c2)cc1 [Cpd 50, (3S)-3-(4-((3-(6-(2-Methoxyethoxy)-2-methylpyridin-3-yl)benzo[b]thiophen-5-yl)methoxy)phenyl)hex-4-ynoic acid] | 7.92
CC#C[C@@H](CC(=O)O)c1ccc(OCc2ccc3scc(-c4cnc(OCCOC)cc4C)c3c2)cc1 [Cpd 51, (3S)-3-(4-((3-(6-(2-Methoxyethoxy)-4-methylpyridin-3-yl)benzo[b]thiophen-5-yl)methoxy)phenyl)hex-4-ynoic acid] | 8.22
CC#C[C@@H](CC(=O)O)c1ccc(OCc2ccc3scc(-c4cc(Cl)ncc4C)c3c2)cc1 [Cpd 52, (3S)-3-(4-((3-(2-Chloro-5-methylpyridin-4-yl)benzo[b]thiophen-5-yl)methoxy)phenyl)hex-4-ynoic acid] | 7.72
Cc1ccccc1-c1csc2ccc(OCc3ccc(CCC(=O)O)cc3)cc12 [Cpd 53, 3-(4-(((3-(2-Methylphenyl)benzo[b]thiophen-5-yl)oxy)methyl)phenyl)propanoic acid] | 6.05
CC#C[C@@H](CC(=O)O)c1ccc(COc2ccc3scc(-c4ccc(OCCC(C)(C)O)cc4C)c3c2)cc1 [Cpd 54, (3S)-3-[4-[([3-[4-(3-Hydroxy-3-methylbutoxy)-2-methylphenyl]-1-benzothiophen-5-yl]oxy)methyl]phenyl]hex-4-ynoic acid] | 7.36
CC#C[C@@H](CC(=O)O)c1ccc(COc2ccc3scc(-c4ccc(OCC(O)CO)cc4C)c3c2)cc1 (stereo partly drawn) [Cpd 55, (3S)-3-[4-[([3-[4-(2,3-Dihydroxypropoxy)-2-methylphenyl]-1-benzothiophen-5-yl]oxy)methyl]phenyl]hex-4-ynoic acid] | 7.48
CC#C[C@@H](CC(=O)O)c1ccc(COc2ccc3scc(-c4ccc(OCC5(C)COC5)cc4C)c3c2)cc1 [Cpd 56, (3S)-3-(4-[[(3-[2-Methyl-4-[(3-methyloxetan-3-yl)methoxy]phenyl]-1-benzothiophen-5-yl)oxy]methyl]phenyl)hex-4-ynoic acid] | 7.47
CC#C[C@@H](CC(=O)O)c1ccc(COc2ccc3scc(-c4ccc(OC5CCOCC5)cc4C)c3c2)cc1 [Cpd 57, (3S)-3-[4-[([3-[2-Methyl-4-(oxan-4-yloxy)phenyl]-1-benzothiophen-5-yl]oxy)methyl]phenyl]hex-4-ynoic acid] | 7.77
CC#C[C@@H](CC(=O)O)c1ccc(COc2ccc3scc(-c4ccc(OCCOC)cc4C)c3c2)cc1 [Cpd 58, (3S)-3-[4-[([3-[4-(2-Methoxyethoxy)-2-methylphenyl]-1-benzothiophen-5-yl]oxy)methyl]phenyl]hex-4-ynoic acid] | 7.85
CC#C[C@@H](CC(=O)O)c1ccc(COc2ccc3scc(-c4ccc(OCC5CCS(=O)(=O)CC5)cc4C)c3c2)cc1 [Cpd 59, (3S)-3-{4-[((3-{4-[(1,1-Dioxo-tetrahydro-2H-thiopyran-4-yl)methoxy]-2-methylphenyl}-1-benzothiophen-5-yl)oxy)methyl]phenyl}hex-4-ynoic acid] | 7.85
CC#C[C@@H](CC(=O)O)c1ccc(COc2ccc3scc(-c4ccc(OCC5(C)CS(=O)(=O)C5)cc4C)c3c2)cc1 [Cpd 60, (3S)-3-(4-(((3-(2-Methyl-4-((3-methyl-1,1-dioxidothietan-3-yl)methoxy)phenyl)benzo[b]thiophen-5-yl)oxy)methyl)phenyl)hex-4-ynoic acid] | 7.15
CC#CC(CC(=O)O)c1ccc(OCc2ccc3scc(-c4ccc(OCCC(C)(C)O)cc4C)c3c2)nc1 (stereo not shown) [Cpd 61] | 7.80
CC#CC(CC(=O)O)c1ccc(OCc2ccc3scc(-c4ccc(OCC(O)CO)cc4C)c3c2)nc1 (stereo not shown) [Cpd 62, 3-(6-((3-(4-(2,3-Dihydroxypropoxy)-2-methylphenyl)benzo[b]thiophen-5-yl)methoxy)pyridin-3-yl)hex-4-ynoic acid] | 8.00
CC#CC(CC(=O)O)c1ccc(OCc2ccc3scc(-c4ccc(OCC5CCS(=O)(=O)CC5)cc4C)c3c2)nc1 (stereo not shown) [Cpd 63, 3-(6-((3-(4-((1,1-Dioxidotetrahydro-2H-thiopyran-4-yl)methoxy)-2-methylphenyl)benzo[b]thiophen-5-yl)methoxy)pyridin-3-yl)hex-4-ynoic acid] | 8.00
